The record followed here is patent publication US9567345B2, “Pharmaceutically active pyrazolo-triazine derivatives” (LEAD DISCOVERY CENTER GMBH, priority 2012, dated 2017).

One assay has as its target CDK7/CycH/Mat1 (Homo sapiens, UniProt P50613). Put plainly: CDK7 Enzymatic Activity Assay (Lance Kinase Activity Assay, FRET). The class given is biochemical. The procedure:
(§1) This protocol describes how the Lance Kinase Activity Assay was performed to determine IC50 values of compounds of general formula (I) against CDK/Cyclin complexes. The principle behind this enzymatic assay is based upon the phosphorylation of the Ulight-Peptide Substrat. It is detected by using a specific EU-labeled anti-phospho peptide antibody.
(§2) Binding of an inhibitor to the kinase prevents phosphorylation of the Ulight-MBP Substrat, resulting in a loss of FRET.
CDK7 Enzymatic Activity Assay
(§3) The compounds of general formula (I) exemplary summarized in Table 1 were diluted from a 10 mM DMSO stock solution 1:10 in a total volume of 15 μl DMSO. This compound predilution was then serial diluted 1:3 over 8 steps in DMSO and briefly spun down. Each compound solution was now diluted 1:20 in Enzymatic Buffer (HEPES: 50 mM, pH: 7.5; MgCl2: 10 mM; EGTA: 1 mM; DTT: 2 mM; Tween-20: 0.01%), mixed thoroughly and spun down.
(§4) For positive controls, 2 μl of DMSO working solution were mixed with 6 μl CDK7/CycH/Mat1/substrate working solution and 2 μl ATP working solution. Positive and negative controls were calculated from at least 8 different wells. The 384 well plates were mixed in a Teleshaker plate mixer (Beckman Coulter, Brea, Calif., USA) at 2000 rpm for 40 sec, and incubated for 1 h at room temperature before addition of 10 μl LANCE Detection Buffer (1×; EDTA: […]; Eu-Anti-P-MBP: 4 nM) per well. Plates were mixed in a Teleshaker plate mixer (Beckman Coulter, Brea, Calif., USA) at 2000 rpm for 40 sec, followed by incubation with Detection Buffer for 1 h, and reading. […] IC50 values were determined from the sigmoidal dose response curves with the software Quattro Workflow (Quattro GmbH, Munich, Germany).

The target in another assay is CDK9/Cyclin T1 (Homo sapiens, UniProt P50750). Nature of the assay: CDK9 Enzymatic Activity Assay (Lance Kinase Activity Assay, FRET). Format: biochemical. Conditions: for IC50: Table 5B, class symbols per IC50 [nM] ranges of b581, read-out: CDK9: Selectivity of CDK7 inhibition over CDK9 inhibition; for Selectivity CDK7 over CDK9: Table 6. As for the experimental part:
as §1, §2
CDK9 Enzymatic Activity Assay
as §3
as §4, with “CDK9/cyclin T1/substrate” for “CDK7/CycH/Mat1/substrate”

The mark [1] stands for this setting: CDK7/CycH/Mat1, 25 μM ATP final, class ranges, read-out: CDK7: IC50 [nM] for CDK7 inhibition.

Read-outs that look alike come from different tables or passages of the source.

Sequence of CDK9/Cyclin T1 (P50750 whole entry): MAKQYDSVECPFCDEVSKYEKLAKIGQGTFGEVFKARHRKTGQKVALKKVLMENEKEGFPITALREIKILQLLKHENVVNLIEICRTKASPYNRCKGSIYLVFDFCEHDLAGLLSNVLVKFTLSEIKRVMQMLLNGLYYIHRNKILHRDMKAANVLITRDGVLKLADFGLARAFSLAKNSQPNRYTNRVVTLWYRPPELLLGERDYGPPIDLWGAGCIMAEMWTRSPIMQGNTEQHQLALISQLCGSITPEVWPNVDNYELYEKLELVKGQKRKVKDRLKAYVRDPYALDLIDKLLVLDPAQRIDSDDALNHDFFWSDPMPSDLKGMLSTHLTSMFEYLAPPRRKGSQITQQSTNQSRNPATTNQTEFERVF
Sequence of CDK9/Cyclin T1 (O60563 whole entry partner): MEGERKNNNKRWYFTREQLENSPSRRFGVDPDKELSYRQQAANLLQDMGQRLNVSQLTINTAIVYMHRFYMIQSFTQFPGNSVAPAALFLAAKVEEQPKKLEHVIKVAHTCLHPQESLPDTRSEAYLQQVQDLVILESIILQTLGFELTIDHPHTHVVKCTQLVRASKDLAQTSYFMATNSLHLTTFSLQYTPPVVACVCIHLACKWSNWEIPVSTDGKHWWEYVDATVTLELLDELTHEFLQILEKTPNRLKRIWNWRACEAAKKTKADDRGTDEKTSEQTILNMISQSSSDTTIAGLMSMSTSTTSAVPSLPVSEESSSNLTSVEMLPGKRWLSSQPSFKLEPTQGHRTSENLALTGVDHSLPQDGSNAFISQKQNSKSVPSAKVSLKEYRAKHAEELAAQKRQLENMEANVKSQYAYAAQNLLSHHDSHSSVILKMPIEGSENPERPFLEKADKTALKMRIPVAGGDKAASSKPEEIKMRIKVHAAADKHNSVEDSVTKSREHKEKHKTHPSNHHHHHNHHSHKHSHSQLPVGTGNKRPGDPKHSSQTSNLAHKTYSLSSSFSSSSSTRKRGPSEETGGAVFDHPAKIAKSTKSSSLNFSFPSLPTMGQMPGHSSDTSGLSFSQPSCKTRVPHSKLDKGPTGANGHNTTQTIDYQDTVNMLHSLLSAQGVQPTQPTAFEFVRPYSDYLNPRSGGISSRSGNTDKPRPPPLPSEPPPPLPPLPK
Sequence of CDK7/CycH/Mat1 (P50613 whole entry): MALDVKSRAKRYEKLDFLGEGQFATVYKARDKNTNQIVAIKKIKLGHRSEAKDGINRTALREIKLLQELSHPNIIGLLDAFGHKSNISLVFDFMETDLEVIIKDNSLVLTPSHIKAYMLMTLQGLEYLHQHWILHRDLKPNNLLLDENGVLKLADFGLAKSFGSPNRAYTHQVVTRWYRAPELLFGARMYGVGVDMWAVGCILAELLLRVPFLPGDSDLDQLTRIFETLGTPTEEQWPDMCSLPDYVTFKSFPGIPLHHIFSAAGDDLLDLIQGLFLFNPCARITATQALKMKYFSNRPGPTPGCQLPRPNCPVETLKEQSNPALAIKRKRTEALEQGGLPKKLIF

As to `CC(C)c1cnn2c(NCc3ccccc3C#N)nc(OC3CCN(C)CC3)nc12` [(VII-55), 2-(((8-isopropyl-2-((1-methylpiperidin-4-yl)oxy)pyrazolo[1,5-a][1,3,5]triazin-4-yl)amino)methyl)benzonitrile], the IC50 is 10 to 25 nM at CDK7/CycH/Mat1 (setting [1]) and over 2500 nM on CDK9/Cyclin T1.
As to `CC(C)c1cnn2c(NCc3ccccc3-c3ccccc3)nc(OC3CCN(C)CC3)nc12` [(VII-57), N-([1,1′-biphenyl]-2-ylmethyl)-8-isopropyl-2-((1-methylpiperidin-4-yl)oxy)pyrazolo[1,5-a][1,3,5]triazin-4-amine], the IC50 at CDK7/CycH/Mat1 (setting [1]) is under 5 nM; at CDK7/CycH/Mat1 (Table 6, read-out: IC50 CDK7), under 5 nM; at CDK9/Cyclin T1 it was over 2500 nM. Further, the “Selectivity CDK7 over CDK9” value at CDK9/Cyclin T1 is recorded as 909 fold.
As to `CC(C)c1cnn2c(NCc3ccccc3N3CCOCC3)nc(OC3CCN(C)CC3)nc12` [(VII-60), 8-isopropyl-2-((1-methylpiperidin-4-yl)oxy)-N-(2-morpholinobenzyl)pyrazolo[1,5-a][1,3,5]triazin-4-amine], the IC50 is over 25 nM at CDK7/CycH/Mat1 (setting [1]) and over 2500 nM at CDK9/Cyclin T1.
Consider `Cc1cccc(Cl)c1CNc1nc(OC2CCN(C)CC2)nc2c(C(C)C)cnn12` [(VII-62), N-(2-chloro-6-methylbenzyl)-8-isopropyl-2-((1-methylpiperidin-4-yl)oxy)pyrazolo[1,5-a][1,3,5]triazin-4-amine], for which the IC50 on CDK7/CycH/Mat1 (setting [1]) is 10 to 25 nM; at CDK9/Cyclin T1, over 2500 nM.
For `CC(C)c1cnn2c(NCc3c(Cl)cccc3Cl)nc(OC3CCN(C)CC3)nc12` [(VII-63), N-(2,6-dichlorobenzyl)-8-isopropyl-2-((1-methylpiperidin-4-yl)oxy)pyrazolo[1,5-a][1,3,5]triazin-4-amine] the same measures were 10 to 25 nM and over 2500 nM.
For `CC(C)c1cnn2c(NCc3c(F)cccc3F)nc(OC3CCN(C)CC3)nc12` [(VII-64), N-(2,6-difluorobenzyl)-8-isopropyl-2-((1-methylpiperidin-4-yl)oxy)pyrazolo[1,5-a][1,3,5]triazin-4-amine] the same measures were 5 to 10 nM and 50 to 500 nM.
As to `CC(C)Oc1ccccc1CNc1nc(OC2CCN(C)CC2)nc2c(C(C)C)cnn12` [(VII-66), N-(2-isopropoxybenzyl)-8-isopropyl-2-((1-methylpiperidin-4-yl)oxy)pyrazolo[1,5-a][1,3,5]triazin-4-amine], the IC50 on CDK7/CycH/Mat1 (setting [1]) was under 5 nM; on CDK9/Cyclin T1, over 2500 nM.
For `COc1ccccc1[C@H](C)Nc1nc(OC2CCN(C)CC2)nc2c(C(C)C)cnn12` [(VII-67), (S)-8-isopropyl-N-(1-(2-methoxyphenyl)ethyl)-2-((1-methylpiperidin-4-yl)oxy)pyrazolo[1,5-a][1,3,5]triazin-4-amine] the same measures were under 5 nM and over 2500 nM.
For `CC(C)c1cnn2c(N[C@@H](C)c3cccc4ccccc34)nc(OC3CCN(C)CC3)nc12` [(VII-69), (S)-8-isopropyl-2-((1-methylpiperidin-4-yl)oxy)-N-(1-(naphthalen-1-yl)ethyl)pyrazolo[1,5-a][1,3,5]triazin-4-amine] the same measures were under 5 nM and over 2500 nM.
In the case of `CCOc1ccccc1CNc1nc(OC2CCN(C)CC2)nc2c(C(C)C)cnn12` [(VII-70), N-(2-ethoxybenzyl)-8-isopropyl-2-((1-methylpiperidin-4-yl)oxy)pyrazolo[1,5-a][1,3,5]triazin-4-amine], the IC50 is under 5 nM on CDK7/CycH/Mat1 (setting [1]); under 5 nM at CDK7/CycH/Mat1 (Table 6, read-out: IC50 CDK7); over 2500 nM at CDK9/Cyclin T1. In addition, the “Selectivity CDK7 over CDK9” value at CDK9/Cyclin T1 is recorded as 992 fold.
Take `Cc1nccn1-c1ccccc1CNc1nc(OC2CCN(C)CC2)nc2c(C(C)C)cnn12` [(VII-75), 8-isopropyl-N-(2-(2-methyl-1H-imidazol-1-yl)benzyl)-2-((1-methylpiperidin-4-yl)oxy)pyrazolo[1,5-a][1,3,5]triazin-4-amine]: the values for the IC50 on CDK7/CycH/Mat1 (setting [1]) and on CDK9/Cyclin T1 were under 5 nM and over 2500 nM, respectively.
For `CC(C)NS(=O)(=O)c1ccccc1CNc1nc(O[C@@H]2CCCNC2)nc2c(C(C)C)cnn12` [(VII-105), (R)-N-isopropyl-2-(((8-isopropyl-2-(piperidin-3-yloxy)pyrazolo[1,5-a][1,3,5]triazin-4-yl)amino)methyl)benzenesulfonamide] the same measures were over 25 nM and over 2500 nM.
Taken in the same sequence, the figures for `CC(C)c1cnn2c(NCc3ccccc3-n3cccn3)nc(N3CC4(CCNC4)C3)nc12` [(VIII-02), N-(2-(1H-pyrazol-1-yl)benzyl)-8-isopropyl-2-(2,6-diazaspiro[3.4]octan-2-yl)pyrazolo[1,5-a][1,3,5]triazin-4-amine] were under 5 nM and over 2500 nM.
Taken in the same sequence, the figures for `CC(C)c1cnn2c(NCc3ccccc3-n3cccn3)nc(N3CCC4(CCNC4)C3)nc12` (centres unmarked) [(VIII-03), N-(2-(1H-pyrazol-1-yl)benzyl)-8-isopropyl-2-(2,7-diazaspiro[4.4]nonan-2-yl)pyrazolo[1,5-a][1,3,5]triazin-4-amine] were under 5 nM and over 2500 nM.
For `CC(C)c1cnn2c(NCc3ccccc3-n3cccn3)nc(N3CCC34CCCNC4)nc12` (centres unmarked) [(VIII-04), N-(2-(1H-pyrazol-1-yl)benzyl)-8-isopropyl-2-(1,6-diazaspiro[3.5]nonan-1-yl)pyrazolo[1,5-a][1,3,5]triazin-4-amine], the IC50 was 10 to 25 nM on CDK7/CycH/Mat1 (setting [1]) and over 2500 nM on CDK9/Cyclin T1.
Regarding `CC(C)c1cnn2c(NCc3ccccc3-n3cccn3)nc(N3CC4(CCCNC4)C3)nc12` [(VIII-05), N-(2-(1H-pyrazol-1-yl)benzyl)-8-isopropyl-2-(2,6-diazaspiro[3.5]nonan-2-yl)pyrazolo[1,5-a][1,3,5]triazin-4-amine], the IC50 was under 5 nM at CDK7/CycH/Mat1 (setting [1]) and over 2500 nM on CDK9/Cyclin T1.
For `CC(C)c1cnn2c(NCc3ccccc3-n3cccn3)nc(N3CCC4(CCCCN4)C3)nc12` (centres unmarked) [(VIII-06), N-(2-(1H-pyrazol-1-yl)benzyl)-8-isopropyl-2-(2,6-diazaspiro[4.5]decan-2-yl)pyrazolo[1,5-a][1,3,5]triazin-4-amine] the same measures were under 5 nM and over 2500 nM.
Taken in the same sequence, the figures for `CC(C)c1cnn2c(NCc3ccccc3-n3cccn3)nc(N3CCC4(CNC4)C3)nc12` [(VIII-07), N-(2-(1H-pyrazol-1-yl)benzyl)-8-isopropyl-2-(2,6-diazaspiro[3.4]octan-6-yl)pyrazolo[1,5-a][1,3,5]triazin-4-amine] were under 5 nM and over 2500 nM.
For the molecule `CC(C)c1cnn2c(NCc3ccccc3-n3cccn3)nc(N3CCC34CNC4)nc12` [(VIII-08), N-(2-(1H-pyrazol-1-yl)benzyl)-8-isopropyl-2-(1,6-diazaspiro[3.3]heptan-1-yl)pyrazolo[1,5-a][1,3,5]triazin-4-amine], the IC50 on CDK7/CycH/Mat1 (setting [1]) was 5 to 10 nM; on CDK9/Cyclin T1 it was over 2500 nM.
On to `CC(C)c1cnn2c(NCc3ccccc3-n3cccn3)nc(N3CCC4(CCNC4)CC3)nc12` [(VIII-09), N-(2-(1H-pyrazol-1-yl)benzyl)-8-isopropyl-2-(2,8-diazaspiro[4.5]decan-8-yl)pyrazolo[1,5-a][1,3,5]triazin-4-amine], for which the IC50 on CDK7/CycH/Mat1 (setting [1]) is 5 to 10 nM; on CDK9/Cyclin T1, over 2500 nM.
For `CC(C)c1cnn2c(NCc3ccccc3-n3cccn3)nc(N3CC4(CNC4)C3)nc12` [(VIII-10), N-(2-(1H-pyrazol-1-yl)benzyl)-8-isopropyl-2-(2,6-diazaspiro[3.3]heptan-2-yl)pyrazolo[1,5-a][1,3,5]triazin-4-amine] the same measures were 5 to 10 nM and over 2500 nM.
Regarding `CC(C)c1cnn2c(NCc3ccccc3-n3cccn3)nc(N3CC4(CCNCC4)C3)nc12` [(VIII-12), N-(2-(1H-pyrazol-1-yl)benzyl)-8-isopropyl-2-(2,7-diazaspiro[3.5]nonan-2-yl)pyrazolo[1,5-a][1,3,5]triazin-4-amine], the IC50 on CDK7/CycH/Mat1 (setting [1]) is under 5 nM; on CDK9/Cyclin T1, over 2500 nM.
Taken in the same sequence, the figures for `CC(C)c1cnn2c(NCc3ccccc3-n3cccn3)nc(N3CCCC34CCNC4)nc12` (centres unmarked) [(VIII-13), N-(2-(1H-pyrazol-1-yl)benzyl)-8-isopropyl-2-(1,7-diazaspiro[4.4]nonan-1-yl)pyrazolo[1,5-a][1,3,5]triazin-4-amine] were 5 to 10 nM and over 2500 nM.
